According to patent publication US20040043959A1, “Combination therapies for treating methylthioadenosine phosphorylase deficient cells” (priority 2002, published 2004):

Target: T1, Human MTAP (Homo sapiens, UniProt Q13126)
T1 construct: six-histidine tag (His6) (N); made in house; host or cells: E. coli BL21 DE3
T1 sequence (Q13126 1-283): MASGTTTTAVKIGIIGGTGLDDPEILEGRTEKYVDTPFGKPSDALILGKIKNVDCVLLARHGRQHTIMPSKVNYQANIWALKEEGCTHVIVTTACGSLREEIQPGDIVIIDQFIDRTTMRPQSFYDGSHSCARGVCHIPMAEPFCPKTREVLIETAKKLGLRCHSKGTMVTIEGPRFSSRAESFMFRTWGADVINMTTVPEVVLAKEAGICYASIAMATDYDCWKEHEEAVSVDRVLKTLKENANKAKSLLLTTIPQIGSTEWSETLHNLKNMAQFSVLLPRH
Experiment: MTAP substrate assay, coupled spectrophotometric (adenine, xanthine oxidase)
Format: biochemical
Details: 2 nM MTAP; for activity at 50 µM: 10 min, compound 50 uM, relative to MTA at 50 uM, read-out: MT-A—50: initial velocity as a percentage of the initial velocity with MTA as substrate; for MT-A—10: initial velocity as a percentage of the initial velocity with MTA as substrate: compound 10 uM, relative to MTA at 10 uM
How it was run: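 Detection was xanthine oxidase-coupled (0.8 units/ml), reading adenine-derived absorbance at 305 nm over 10 min in potassium phosphate/DTT buffer at 37° C, with N-His6 enzyme purified from E. coli.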

activity at 50 µM | MT-A—10: initial velocity as a percentage of the initial velocity with MTA as substrate | Structure (SMILES)
67.5% | 72% | CCCCCCSC[C@H]1O[C@@H](n2cnc3c(N)ncnc32)[C@H](O)[C@@H]1O [2(G)(126), (2R, 3R, 4S, 5S)-2-(6-amino-9H-purin-9-yl)-5-[(hexylthio)methyl]tetra-hydrofuran-3,4-diol]
58.5% | 56% | Nc1ncnc2c1ncn2[C@@H]1O[C@H](CSCc2ccccc2F)[C@@H](O)[C@H]1O [2(G)(127), (2R, 3R, 4S, 5S)-2-(6-amino-9H-purin-9-yl)-5-{[(2-fluorobenzyl)-thio]methyl}tetrahydro-furan-3,4-diol]
10.5% | 11% | Nc1ncnc2c1ncn2[C@@H]1O[C@H](CSc2ccc(Cl)c(Cl)c2)[C@@H](O)[C@H]1O [2(G)(128), (2R, 3R, 4S, 5S)-2-(6-amino-9H-purin-9-yl)-5{[(3,4-dichlorophenyl)-thio]methyl}tetrahydro-furan-3,4-diol]
41.5% | 46% | CCCCCCCCCCSC[C@H]1O[C@@H](n2cnc3c(N)ncnc32)[C@H](O)[C@@H]1O [2(G)(129), (2R, 3R, 4S, 5S)-2-(6-amino-9H-purin-9-yl)-5-[(decylthio)methyl]tetra-hydrofuran-3,4-diol]
4.5% | −2% | Nc1ncnc2c1ncn2[C@@H]1O[C@H](CSc2ccc(Cl)cc2Cl)[C@@H](O)[C@H]1O [2(G)(130), (2R, 3R, 4S, 5S)-2-(6-amino-9H-purin-9-yl)-5-{[(2,4-dichlorophenyl)-thio]methyl}tetrahydro-furan-3,4-diol]
11% | 11.5% | Nc1ncnc2c1ncn2[C@@H]1O[C@H](CSc2cc(Cl)cc(Cl)c2)[C@@H](O)[C@H]1O [2(G)(131), (2R, 3R, 4S, 5S)-2-(6-amino-9H-purin-9-yl)-5-{[(3,5-dichlorophenyl)-thio]methyl}tetrahydro-furan-3,4-diol]
1.5% | 0% | CCOC(=O)c1c[nH]c(SC[C@H]2O[C@@H](n3cnc4c(N)ncnc43)[C@H](O)[C@@H]2O)n1 [2(G)(132), Ethyl 2-({[(2S, 3S, 4R, 5R)-5-(6-amino-9H-purin-9-yl)-3,4-dihydroxytetra-hydrofuran-2-yl]methyl}thio)-1H-imidazole-4-carboxylate]
31.5% | 22.5% | CCCCOC(=O)CSC[C@H]1O[C@@H](n2cnc3c(N)ncnc32)[C@H](O)[C@@H]1O [2(G)(133), Butyl ({[(2S, 3S, 4R, 5R)-5-(6-amino-9H-purin-9-yl)-3,4-dihydroxytetra-hydrofuran-2-yl]methyl}-thio)acetate]
37.5% | 18% | CCCCNCCSC[C@H]1O[C@@H](n2cnc3c(N)ncnc32)[C@H](O)[C@@H]1O [2(G)(136), (2R, 3R, 4S, 5S)-2-(6-amino-9H-purin-9-yl)-5-({[2-(butylamino)-ethyl]thio}methyl)-tetrahydrofuran-3,4-diol]
2% | 3.5% | Cc1cc(C)c(CSC[C@H]2O[C@@H](n3cnc4c(N)ncnc43)[C@H](O)[C@@H]2O)c(C)c1 [2(G)(137), (2R, 3R, 4S, 5S)-2-(6-amino-9H-purin-9-yl)-5-{[(mesitylmethyl)thio]-methyl}tetrahydrofuran-3,4-diol]
12.5% | 9% | Nc1ncnc2c1ncn2[C@@H]1O[C@H](CSc2nc(-c3ccccc3)cs2)[C@@H](O)[C@H]1O [2(G)(138), (2R, 3R, 4S, 5S)-2-(6-amino-9H-purin-9-yl)-5-{[(4-phenyl-1,3-thiazol-2-yl)thio]methyl}-tetrahydrofuran-3,4-diol]
30% | 26.5% | CCCCOC(=O)CCSC[C@H]1O[C@@H](n2cnc3c(N)ncnc32)[C@H](O)[C@@H]1O [2(G)(139), Butyl 3-({[(2S, 3S, 4R, 5R)-5-(6-amino-9H-purin-9-yl)-dihydroxytetrahydro-furan-2-yl]methyl}thio)-propanoate]
7.5% | 3% | CCOC(=O)C(C)SC[C@H]1O[C@@H](n2cnc3c(N)ncnc32)[C@H](O)[C@@H]1O (stereo partly drawn) [2(G)(140), Ethyl 2-({[(2S, 3S, 4R, 5R)-5-(6-amino-9H-purin-9-yl)-3,4-dihydroxytetra-hydrofuran-2-yl]methyl}-thio)-propanoate]
27% | 10% | CC(O)CSC[C@H]1O[C@@H](n2cnc3c(N)ncnc32)[C@H](O)[C@@H]1O (stereo partly drawn) [2(G)(141), (2R, 3R, 4S, 5S)-2-(6-amino-9H-purin-9-yl)-5-{[(2-hydroxypropyl)-thio]methyl}tetrahydro-furan-3,4-diol]
58% | 1.5% | CCCCCCCCSC[C@H]1O[C@@H](n2cnc3c(N)ncnc32)[C@H](O)[C@@H]1O [2(G)(142), (2R, 3R, 4S, 5S)-2-(6-amino-9H-purin-9-yl)-5-[(octylthio)methyl]tetra-hydrofuran-3,4-diol]
7.5% | 18% | CC(O)C(C)SC[C@H]1O[C@@H](n2cnc3c(N)ncnc32)[C@H](O)[C@@H]1O (stereo partly drawn) [2(G)(144), (2R, 3R, 4S, 5S)-2-(6-amino-9H-purin-9-yl)-5-{[(2-hydroxy-1-methyl-propyl)thio]methyl}tetra-hydrofuran-3,4-diol]
16% | 3.5% | Nc1ncnc2c1ncn2[C@@H]1O[C@H](CSCc2ccc(Cl)c(Cl)c2)[C@@H](O)[C@H]1O [2(G)(145), (2R, 3R, 4S, 5S)-2-(6-amino-9H-purin-9-yl)-5-{[(3,4-dichlorobenzyl)-thio]methyl}tetrahydro-furan-3,4-diol]
2% | 28% | CC(C)c1ccccc1SC[C@H]1O[C@@H](n2cnc3c(N)ncnc32)[C@H](O)[C@@H]1O [2(G)(146), (2R, 3R, 4S, 5S)-2-(6-amino-9H-purin-9-yl)-5-{[(2-isopropylphenyl)-thio]methyl}tetrahydro-furan-3,4-diol]
25.5% | 18.5% | Nc1ncnc2c1ncn2[C@@H]1O[C@H](CSc2cccc(F)c2)[C@@H](O)[C@H]1O [2(G)(147), (2R, 3R, 4S, 5S)-2-(6-amino-9H-purin-9-yl)-5-{[(3-fluorophenyl)-thio]methyl}tetrahydro-furan-3,4-diol]
15% | 2% | Cc1cc(C)cc(SC[C@H]2O[C@@H](n3cnc4c(N)ncnc43)[C@H](O)[C@@H]2O)c1 [2(G)(148), (2R, 3R, 4S, 5S)-2-(6-amino-9H-purin-9-yl)-5-{[(3,5-dimethylphenyl)-thio]methyl}tetrahydro-furan-3,4-diol]
2.5% | 35.5% | Cc1ccc(SC[C@H]2O[C@@H](n3cnc4c(N)ncnc43)[C@H](O)[C@@H]2O)c(C)c1 [2(G)(149), (2R, 3R, 4S, 5S)-2-(6-amino-9H-purin-9-yl)-5-{[(2,4-dimethylphenyl)-thio]methyl}tetrahydro-furan-3,4-diol]
33.5% | 2% | Cc1ccc(SC[C@H]2O[C@@H](n3cnc4c(N)ncnc43)[C@H](O)[C@@H]2O)cc1C [2(G)(150), (2R, 3R, 4S, 5S)-2-(6-amino-9H-purin-9-yl)-5-{[(3,4-dimethylphenyl)-thio]methyl}tetrahydro-furan-3,4-diol]
2% | 13.5% | Nc1ncnc2c1ncn2[C@@H]1O[C@H](CSc2cccc(Cl)c2Cl)[C@@H](O)[C@H]1O [2(G)(151), (2R, 3R, 4S, 5S)-2-(6-amino-9H-purin-9-yl)-5-{[(2,3-dichlorophenyl)-thio]methyl}tetrahydro-furan-3,4-diol]
17% | 19.5% | CSc1nsc(SC[C@H]2O[C@@H](n3cnc4c(N)ncnc43)[C@H](O)[C@@H]2O)n1 [2(G)(152), (2R, 3R, 4S, 5S)-2-(6-amino-9H-purin-9-yl)-5-({[3-(methylthio)-1,2,4-thiodiazol-5-yl)-thio}methyl)tetrahydro-furan-3,4-diol]
22.5% | 10% | Nc1ncnc2c1ncn2[C@@H]1O[C@H](CSc2nc3ccc(Cl)cc3o2)[C@@H](O)[C@H]1O [2(G)(153), (2R, 3R, 4S, 5S)-2-(6-amino-9H-purin-9-yl)-5-{[(6-chloro-1,3-benz-oxazol-2-yl)thio]methyl}tetrahydrofuran-3,4-diol]
26% | 39% | Cc1cc(C)nc(SC[C@H]2O[C@@H](n3cnc4c(N)ncnc43)[C@H](O)[C@@H]2O)n1 [2(G)(154), (2R, 3R, 4S, 5S)-2-(6-amino-9H-purin-9-yl)-5-{[(4,6-dimethyl-pyrimidin-2-yl)thio]methyl}tetrahydrofuran-3,4-diol]
